# From ChEMBL document CHEMBL2086257, “Rhododendric acid A, a new ursane-type PTP1B inhibitor from the endangered plant Rhododendron brachycarpum G. Don” (Bioorg Med Chem Lett, 2012)
# pIC50: −log10 of the molar value.
# Target: T1, Tyrosine-protein phosphatase non-receptor type 1 (Homo sapiens, UniProt P18031)
# T1 sequence (P18031 whole entry): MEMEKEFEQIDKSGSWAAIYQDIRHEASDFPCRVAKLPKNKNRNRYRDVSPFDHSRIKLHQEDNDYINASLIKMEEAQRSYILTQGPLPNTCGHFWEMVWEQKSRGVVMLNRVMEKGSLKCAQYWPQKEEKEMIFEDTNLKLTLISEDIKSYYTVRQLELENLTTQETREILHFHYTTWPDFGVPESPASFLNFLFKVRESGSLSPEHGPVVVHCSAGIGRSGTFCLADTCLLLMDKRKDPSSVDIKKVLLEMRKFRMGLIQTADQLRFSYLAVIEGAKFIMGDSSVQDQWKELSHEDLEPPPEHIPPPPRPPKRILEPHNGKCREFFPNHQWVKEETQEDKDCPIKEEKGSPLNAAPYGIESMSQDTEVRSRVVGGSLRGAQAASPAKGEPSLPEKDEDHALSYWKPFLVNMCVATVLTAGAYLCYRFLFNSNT
# Test: Inhibition of human recombinant PTP1B using p-nitrophenyl phosphate as substrate assessed as p-nitrophenol release after 30 mins
row,Structure (SMILES),pIC50
1,C=C1CC[C@]2(C(=O)O)CC[C@]3(C)C(=CC[C@@H]4[C@@]5(C)C[C@@H](O)[C@@H](O)[C@@](C)(CO)[C@@H]5CC[C@]43C)[C@@H]2[C@H]1C,4.76
2,CCCCCCCCCCCCCCCC(=O)C1=C(O)[C@@H](CO)OC1=O,5.40
3,C[C@H]1[C@H](C)CC[C@]2(C(=O)O)CC[C@]3(C)C(=CC[C@@H]4[C@@]5(C)CC[C@H](O)[C@@](C)(CO)[C@@H]5CC[C@]43C)[C@H]12,5.13
4,C=C1CC[C@]2(C(=O)O)CC[C@]3(C)C(=CC[C@@H]4[C@@]5(C)C[C@@H](O)[C@H](O)[C@@](C)(CO)[C@@H]5CC[C@]43C)[C@@H]2[C@H]1C [ACTINIDIC ACID],4.74
5,C[C@H]1[C@H](C)CC[C@]2(C(=O)O)CC[C@]3(C)C(=CC[C@@H]4[C@@]5(C)C[C@@H](O)[C@H](O)C(C)(C)[C@@H]5CC[C@]43C)[C@H]12 [COROSOLIC ACID],5.15
6,C=C1CC[C@]2(C(=O)O)CC[C@]3(C)C(=CC[C@@H]4[C@@]5(C)CC[C@H](O)[C@@](C)(CO)[C@@H]5CC[C@]43C)[C@@H]2[C@H]1C [RHODODENDRIC ACID A],5.20
7,C[C@@H]1CC[C@]2(C(=O)O)CC[C@]3(C)C(=CC[C@@H]4[C@@]5(C)CC[C@H](O)[C@@](C)(CO)[C@@H]5CC[C@]43C)[C@@H]2[C@]1(C)O [ROTUNDIC ACID],4.70
